Results reported in patent publication US9968634B2, “Techniques and systems for treatment of neuropathic pain and other indications” (priority 2012, dated 2018).

Columns and labels:
[1] = tested on: micro-capillary blood flow to skin; assay: Laser Doppler study with closed Hilltop chamber on forearm, Example 5; assay type: in vivo, human; settings: applied to the skin at 1/10% in alcohol
Description: The formulation used in these studies contained nitric oxide dispersed in a lipid matrix. […] Nitric oxide is a very rapid acting molecule, and these studies used a system that employed laser Doppler with a covered chamber. The formulation was placed into the chamber and then attached to the skin by an adhesive layer on the covering. This provided a stable measuring device as determined by multiple normal evaluations of the capillary blood flow without treatment of nitric oxide.
A known positive control, methyl nicotinate, was applied to the skin at a concentration of 1/10% in alcohol. […] The vascular dynamics are such that when the blood vessels dilate physical parameters follow Bernoulli's law. […] The laser Doppler device accurately measured these parameters.
In these studies, the participants were healthy females aged 30 to 55 years. They were in good health as determined by the medical history and were not taking any prescription medications. All study participants read and signed the informed consent statement prior to any study procedures being performed. […]
A Moor Instruments DRT4 Laser Doppler Blood Flow Monitor (Devon, England) was used in these studies. The laser Doppler technique measured blood flow in the microcapillaries of the skin that are close to the skin surface and the blood flow in underlying arterioles and venules that help to regulate skin temperature. […]

[2] = tested on: capillary circulation of the skin; assay: Laser Doppler study of creams in five human subjects, Example 7; assay type: in vivo; settings: positive control formulation, 0.1% methyl nicotinate
Description: This example illustrates delivery of nitric oxide formulations to five human subjects, using procedures and formulations similar to those discussed in Example 5. Each person served as their own control for the testing. A Moor Instruments Laser Doppler was used to determine circulation. […] The formulations used produce positive, almost immediate results when applied to the skin which, in these studies, was manifested by vasodilatation of the cutaneous vascular system.
For each subject, the following creams were applied: a negative control formulation (containing no NO), 0.010 gram of a 10,000 ppm NO formulation, 0.020 gram of a 10,000 ppm NO formulation, and a positive control formulation containing 0.1% methyl nicotinate. The formulations were prepared using procedures similar to those discussed in Example 1.

COC(=O)c1cccnc1 [methyl nicotinate]
laser Doppler response of positive control [1]: rapid response typical of the vasodilator
vasodilatation (laser Doppler) [2]: vasodilatation was observed
